According to BindingDB's records for doi:10.1021/jm00403a001 (Smith Kline & French Laboratories, 1988):

Target: Vasopressin V2 receptor (Canis familiaris)
Test: In vitro antagonist activity was measured by inhibition of vasopressin-stimulated adenylate cyclase in renal medullary preparation in dog

For `CCOc1ccc(C[C@H]2NC(=O)CC3(CCCCC3)CCC[C@@H](C(=O)N3CCC[C@H]3C(=O)N[C@@H](CCCN=C(N)N)C(N)=O)NC(=O)[C@H](CC(N)=O)NC(=O)[C@H](C(C)C)NC(=O)[C@H](Cc3ccccc3)NC2=O)cc1` [1-[13-Benzyl-19-carbamoylmethyl-10-(4-ethoxy-benzyl)-16-isopropyl-8,11,14,17,20-pentaoxo-9,12,15,18,21-pentaaza-spiro[5.19]pentacosane-22-carbonyl]-pyrrolidine-2-carboxylic acid (1-carbamoyl-4-guanidino-butyl)-amide], the Ki was 1000 µM.
